Here are results for 12 compounds from PMC4887073, “Investigating the Role of Loop C Hydrophilic Residue ‘T244’ in the Binding Site of ρ1 GABAC Receptors via Site Mutation and Partial Agonism” (PLoS ONE, 2016).

Where two headings read alike, the source gives them in different places.

Assay [1] deals with T1, human ρ1 GABAC WT receptors (Homo sapiens, UniProt P24046).
T1 construct: expressed in transfected cells; host or cells: Xenopus laevis oocytes injected with cRNA
The assay can be described thus: Two-electrode voltage-clamp electrophysiology, Xenopus oocytes expressing ρ1 GABAC WT receptors. The assay is classed as cell-based. As to conditions: for Emax: read-out: efficacy relative to the GABA maximal response, ligand applied alone; for additive effect on GABA EC50 response (GABA EC50 response set to 100%): co-applied with GABA EC50. The protocol: Human ρ1 cDNA subcloned into pcDNA1.1 (Invitrogen, San Diego, CA, USA) was kindly provided by Dr. George Uh1 (National Institute for Drug Abuse, Baltimore, MD, USA).
(§1) ρ1 GABAC WT and mutant plasmids DNA were linearized by incubation with Xba1. ρ1 WT and mutant cRNA were synthesized using the T7 Transcription mMESSAGE mMACHINE Kit (Ambion, Austin, TX, USA) following the procedure described by the manufacture. The quantity and quality of synthesized CRNA was determined by absorbance at 260–280 nm using Nanodrop Spectrophotometer (Thermo Scientific, Wilmington, DE, USA). The purity of synthesized cRNA was confirmed by agarose gel electrophoresis (0.9%) using the GelDoc 1000 (Bio-Rad Laboratories, Hercules, CA USA).
(§2) A microprocessor-controlled micropipette puller (PUL-100, World Precision Instruments, Inc. FL, USA) was used to make micropipettes then RNA pulled up into the micropipette by a positive-displacement using micro-injector (Nanoliter micro-injector, World Precision Instruments, Inc. FL, USA). Oocytes were sorted and healthy ones were injected with 35–50 ng of ρ cRNA unless otherwise mentioned.
(§3) The injected oocytes were incubated for between two and four days after injection with desired RNA. Two-electrode voltage clamp instrument; Geneclamp 500 amplifier (Axon Instrument, Sydney, NSW, Australia) and Chart version 5.5.6 was used to measure the various activities at the receptors expressed by these oocytes. The recording microelectrodes were prepared by pulling using PUL-100 micropipette puller (World precision Instruments, Inc. FL, USA) and filled with 3 M KCl.
(§4) Dose response curves were generated using GraphPad PRISM 5.02 (GraphPad Software San Diego, CA).
(§5) The inhibitory concentration curves were generated using GraphPad PRISM 5.02 and IC50 values were calculated using Eq 2.

The target of assay [2] is T2, ρ1 GABAC T244S mutant receptors (Homo sapiens, UniProt P24046, T265S).
T2 construct: expressed in transfected cells; host or cells: Xenopus laevis oocytes injected with cRNA
Briefly: Two-electrode voltage-clamp electrophysiology, Xenopus oocytes expressing ρ1 T244S mutant receptors. The assay is classed as cell-based. The following applies: for effect of T244S mutation on antagonist potency: ρ1 T244S compared to WT. The protocol:
(§6) Pairs of the complementary mutagenic oligonucleotide primers were first designed to introduce single point mutations at human ρ1 GABAC subunit using UniProt. Primers were made by life technologies (Life Technologies^TM Australia Pty Ltd).
(§7) Site-directed mutagenesis was performed using QuikChange II site-directed mutagenesis kit as described by the manufacturer (Stratagene).
as §1, §2, §3, §4, §5

Assay [3] addresses T3, ρ1 GABAC T244A mutant receptors (Homo sapiens, UniProt P24046, T265A).
T3 construct: expressed in transfected cells; host or cells: Xenopus laevis oocytes injected with cRNA (raised to 300 ng/μl)
The assay can be described thus: Two-electrode voltage-clamp electrophysiology, Xenopus oocytes expressing ρ1 T244A mutant receptors. The assay is classed as cell-based. Here is the method:
as §6, §7, §1, §2, §3, §4

Assay [4] deals with T1, human ρ1 GABAC WT receptors. More on the design: method as in PMID 8386310. The following applies: agonist applied alone; cited from earlier work.
The target in assay [5] is T4, ρ1 GABAC T244C mutant receptors (Homo sapiens, UniProt P24046, T265C).
T4 construct: expressed in transfected cells; host or cells: Xenopus laevis oocytes injected with cRNA (raised to 300 ng/μl)
Briefly: Two-electrode voltage-clamp electrophysiology, Xenopus oocytes expressing ρ1 T244C mutant receptors. The class given is cell-based. The protocol:
as §6, §7, §1, §2, §3
Current responses were normalized to the maximum GABA-activated current (or other ligand which is stated as required) and expressed as a percentage, which was fitted by least squares to Hill equation (Eq 1). Dose response curves were generated using GraphPad PRISM 5.02 (GraphPad Software San Diego, CA).
GABA was first tested on all mutant receptors in order to determine the functionality of these receptors.

The target in assay [6] is T2, ρ1 GABAC T244S mutant receptors. As to conditions: agonist effects eliminated; cited from earlier work.
[7] abbreviates: read-out: efficacy relative to the GABA maximal response, ρ1 T244S, ligand applied alone.
[8] abbreviates: high GABA concentrations, 300 ng/μl RNA.

T2 sequence (P24046 22-479 T265S): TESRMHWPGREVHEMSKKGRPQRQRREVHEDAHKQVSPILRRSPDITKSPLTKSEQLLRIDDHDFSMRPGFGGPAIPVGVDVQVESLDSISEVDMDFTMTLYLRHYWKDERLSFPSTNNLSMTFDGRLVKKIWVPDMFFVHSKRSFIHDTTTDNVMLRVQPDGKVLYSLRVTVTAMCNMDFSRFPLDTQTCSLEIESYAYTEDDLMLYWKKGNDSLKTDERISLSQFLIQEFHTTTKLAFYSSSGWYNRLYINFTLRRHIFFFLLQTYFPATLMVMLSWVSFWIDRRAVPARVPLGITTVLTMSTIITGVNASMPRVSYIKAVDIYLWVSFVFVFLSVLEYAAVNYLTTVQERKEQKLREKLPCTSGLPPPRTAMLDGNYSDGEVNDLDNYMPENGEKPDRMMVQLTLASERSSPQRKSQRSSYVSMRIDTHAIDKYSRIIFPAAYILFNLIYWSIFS
T1 sequence (P24046 22-479): as the sequence (P24046 22-479 T265S) above, with S244T counted along it
T4 sequence (P24046 22-479 T265C): as the sequence (P24046 22-479 T265S) above, with S244C counted along it
T3 sequence (P24046 22-479 T265A): as the sequence (P24046 22-479 T265S) above, with S244A counted along it

Consider `NC/C=C\C(=O)O` [CACA], for which the EC50 in assay [1] (agonist applied alone, ρ1 WT) was found to be 95 µM. Also, the figures for the Emax in assay [1] (ρ1 WT) and in assay [2] (setting [7]) were 60% and 2%, respectively. In assay [1] (ρ1 WT, co-applied with GABA EC50, at 100 μM ligand), the “additive effect, % of GABA EC50 efficacy” value came to 150%. Moreover, the “magnitude of response, % of GABA IMAX” value in assay [2] (ρ1 T244S, 300 μM applied alone) is “less than 2%”. The agonist activity entry in assay [2] (ρ1 T244S, applied alone, minimal response at 300 μM) is “almost inactive”. The “enhancement of the GABA EC50 effect” value in assay [2] (ρ1 T244S, co-applied with GABA EC50, at 100 μM ligand) is reported as about 20%.
In assay [1] (ρ1 WT), `CP(=O)(O)C1=CCNCC1` [TPMPA] had a half-inhibitory concentration (IC50) of 2.3 µM. The “effect when applied alone” value in assay [3] was “no effect”. In assay [3] (1 mM against β-alanine response (30 mM)), the “effect on β-alanine response” value was “weakly antagonizes”. For the same compound, in assay [2], the “effect of T244S mutation on antagonist potency” value is “no effect”.
With `O=C(O)C1=CCNCC1` [isoguvacine], in assay [1] (ρ1 WT), the Emax was found to be 45% and the “additive effect on GABA EC50 response (GABA EC50 response set to 100%)” value turned out to be 135%. Moreover, 25.3 µM corresponded to half-maximal inhibition in assay [2] (IC50). For the same compound, the EC50 in assay [4] is 200 µM.
In the case of `NCCCC(=O)O` [GABA, γ-aminobutyric acid], the response entry in assay [5] (30 mM, five times the RNA normally injected) is on record as “very weak response”. For the same compound, the “sensitivity of receptors to GABA” value in assay [5] (GABA 30mM, 50–100 ng/μl RNA) is listed as “non-functional or insensitive”; in assay [5] (setting [8]), “weakly responsive”; in assay [3] (GABA 30mM, 50–100 ng/μl RNA), “non-functional or insensitive”; in assay [3] (setting [8]) it was “weakly responsive”. Further, the “effect on β-alanine response” value in assay [3] (30 mM co-applied with 30 mM β-alanine) was “moderately inhibits”.
Take `Oc1noc2c1CCNC2` [THIP, 4,5,6,7-tetrahydroisoxazolo[5,4-c]pyridin-3-ol]: the “effect of T244S mutation on antagonist potency” value in assay [2] is listed as “no effect”.
Regarding `NCC(=O)O` [glycine], the agonist character entry in assay [1] (ρ1 WT, applied alone) is “weak partial agonists”. In addition, the “direct activation of receptors” value is listed as 25% in assay [1] (ρ1 WT, at mM concentrations, applied alone) and 2% in assay [2] (ρ1 T244S, at mM concentrations, applied alone). Further, the “additive effect on GABA EC50 response (GABA EC50 response set to 100%)” value came to 180% in assay [1] (ρ1 WT) and 145% in assay [2] (ρ1 T244S, co-applied with GABA EC50). In addition, the “efficacy compared with GABA” value in assay [3] is recorded as “less efficacious than GABA”. Moreover, in assay [2] (ρ1 T244S, ligand applied alone), the “maximum efficacy relative to the GABA maximal response at 30 mM” value came to 8%.
On to `NC/C=C/C(=O)O` [TACA, trans-aminocrotonic acid], for which the Emax in assay [1] (ρ1 WT) was determined as 95%; in assay [2] (setting [7]) it was 110%. The “efficacy compared with GABA” value in assay [3] is reported as “less efficacious than GABA”. Besides, in assay [2] (agonist applied alone, ρ1 T244S), the EC50 amounted to 14 µM. Further, the “fold decrease in potency/activity” value in assay [2] (ρ1 T244S compared to ρ1 WT) was 25 fold.
On to `NCc1cc(=O)[nH]o1` [muscimol], for which, in assay [3], the “efficacy compared with GABA” value is “less efficacious than GABA”. In addition, the “mode of action at mutant receptors” value in assay [6] was “acted only as competitive antagonists”.
In the case of `CS(=O)(=O)SCCN` [MTSEA, 2-aminoethylmethane thiosulfonate], the activation result in assay [1] (ρ1 WT, applied alone) is “very weak efficacy and potency”. Also, the “effect on GABA EC50 response” value in assay [1] (ρ1 WT, co-applied with GABA EC50, concentrations below 100 μM) is given as “weak additive effects”; in assay [1] (ρ1 WT, co-applied with GABA EC50, concentrations of 100 μM and above) it was “weakly antagonizes”. Moreover, in assay [5] (reversible responses), the “potency and efficacy compared with GABA” value was “greater potency and efficacy than GABA”.
`O=C(O)Cc1c[nH]cn1` [imidazole-4-acetic acid]: the “mode of action at mutant receptors” value in assay [6] is reported as “acted only as competitive antagonists”.
For `NCCCCC(=O)O` [5-aminovaleric acid], the results for the IC50 in assay [1] and in assay [2] were 37 µM and 17 µM, respectively. The agonist character result in assay [1] (ρ1 WT, applied alone) is “weak partial agonists”. In addition, the “efficacy compared with GABA” value in assay [3] is recorded as “less efficacious than GABA”.
`NCCC(=O)O` [β-alanine]: the IC50 in assay [1] was determined as 120 µM; in assay [2] it was 1000 µM. The “weak additive effect on GABA EC50 response” value in assay [1] (xenopus oocytes) is 125%; in assay [2] (xenopus oocytes), 115%. Besides, in assay [1] (ρ1 WT, applied alone), the agonist character entry is reported as “weak partial agonists”. The “inhibition of GABA EC50” value in assay [1] (ρ1 WT, concentrations greater than 100 μM) was determined as 60%; in assay [2] (ρ1 T244S, concentrations greater than 100 μM) it was 60%. In assay [3] (300 ng/μl mutant RNA injected), this compound showed an EC50 of 1500 µM. Moreover, in assay [3] (30 mM concentration), the “efficacy compared with GABA” value is recorded as “approximately two times more efficacious than GABA”. Also, in assay [2] (read-out: maximum efficacy relative to the GABA maximal response at 30 mM, ρ1 T244S, ligand applied alone), the Emax came to 5%. The “fold increase of IC50” value in assay [2] (ρ1 T244S compared to ρ1 WT, against GABA EC50) was 8 fold.
